Laboratory results: patent US20240368088A1, “EP4 ANTAGONIST COMPOUND AS WELL AS SALT, POLYMORPH AND USE THEREOF” (Wuhan Humanwell Innovative Drug Research and Development …, priority 2021, published 2024)
Values after ≈ are worked out from the molar mass of the structure shown.

Key:
[1] = Solid state stability (XRPD and HPLC after uncovered storage); conditions: for Relative to starting (%): HPLC purity; for Purity (area %): HPLC
Method: XRPD patterns are acquired on an X-ray powder diffraction analyzer manufactured by PANalytacal, and the scanning parameters are shown in Table A-1 below.
The free acid crystal form A and the crystal form A of the tromethamine salt were left to stand uncovered for 1/4 weeks at 25° C./60% RH and 40° C./75% RH, respectively, and then the physical and chemical stability of the samples was tested by XRPD and HPLC.

[2] = Hygroscopicity evaluation by dynamic vapor sorption (DVS); format: physicochemical
Method: Dynamic vapor sorption (DVS) curves are acquired on a DVS IntrInsic in Surface Measurement Systems (SMS). The relative humidity at 25° C. is corrected with the deliquescence points of LiCI, Mg (NO3)2, and KCI.
Starting at 0% RH, the test acquired the percentage change in mass of the sample when humidity changed (0% RH to 95% RH to 0% RH) at a constant temperature of 25° C.

[3] = Dynamic solubility experiment at 37° C. in water, SGF, FaSSIF and FeSSIF; conditions: for solubility at 1 h / solubility at 2 h / solubility at 4 h / solubility at 24 h: 37 °C, thermodynamic from solid; for Crystal form change: XRPD of centrifuged solid; for pH: pH value of filtrate;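 as to all read-outs here: at each sampling time, filtrate assayed by HPLC for concentration and for pH, centrifuged solid checked by XRPD, media SGF at pH 1.8, FaSSIF 6.5, FeSSIF 5.0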
Method: In the test, the purity, dynamic solubility and stability are tested by an Agilent 1260 high-performance liquid chromatograph.
The solid at a feeding concentration of 10 mg/mL (40 mg of solid in 4 mL of solvent, calculated as free acid) was rotationally mixed at 37° C., and the solubility of each sample in four systems of water, SGF, FaSSIF, and FeSSIF was determined at different time points (1 h, 2 h, 4 h, and 24 h). After sampling at each time point, the sample was centrifuged (at 10000 rpm) and filtered (through a 0.45 μm PTFE filter head), the filtrate was determined for HPLC concentration and pH value, and the centrifuged solid samples were tested for XRPD.
200.3 mg of NaCl and 105.0 mg of Triton X-100 were weighed out and added to a 50-mL volumetric flask, purified water was added, and the mixture was completely dissolved. 136 μL of concentrated hydrochloric acid (12 M) was added, and the pH was adjusted to 1.8 with 1 M hydrochloric acid or 1 M NaOH solution. Purified water was added, and the mixed solution was brought to volume.
0.34 g of anhydrous NaH2PO4, 0.44 g of NaOH, and 0.62 g of NaCl were weighed out and added to a 50-mL volumetric flask. Purified water was added, the mixture was completely dissolved, and the pH was adjusted to 6.5 with 1 M hydrochloric acid or 1 M NaOH solution. Purified water was added, and the mixed solution was brought to volume. 0.11 g of SIF powder was then weighed out, and the mixed solution was completely dissolved.
0.82 mL of glacial acetic acid, 0.40 g of NaOH, and 1.19 g of NaCl were added to a 50-mL volumetric flask. About 48 mL of purified water was added, the mixture was completely dissolved, and the pH was adjusted to 5.0 with 1 M hydrochloric acid or 1 M NaOH solution. Purified water was added, and the mixed solution was brought to volume. 0.56 g of SIF powder was then weighed out, and the mixed solution was completely dissolved.

[4] = Crystal form conversion on drying at room temperature; format: physicochemical
Method: The free acid crystal form A was dissolved in MIBK (methyl isobutyl ketone), and then the mixture was subjected to gas-liquid diffusion in an n-pentane atmosphere to obtain free acid crystal form B (XRPD pattern thereof shown in FIG. 5).

[5] = 25° C./60% RH/uncovered, 1 week
[6] = 25° C./60% RH/uncovered, 4 weeks
[7] = 40° C./75% RH/uncovered, 1 week
[8] = 40° C./75% RH/uncovered, 4 weeks
[9] = SGF, pH 1.8, simulated gastric fluid

C[C@H](NC(=O)c1c(C(F)F)nn(C)c1Oc1cccc(C(C)(F)F)c1)c1ccc(C(=O)O)cc1 [Free acid crystal form A, (S)-4-(1-(5-(3-(1,1-difluoroethyl)phenoxy)-3-(difluoromethyl)-1-methyl-1H-pyrazole-4-carboxamide)ethyl)benzoic acid]
physicochemical stability (summary statement) [1]: good physicochemical stability | HPLC purity change after placement (in words) ([1]; 25° C./60% RH and 40° C./75% RH, uncovered, 1/4 weeks): not significantly changed | crystal form change after placement (in words) ([1]; 25° C./60% RH and 40° C./75% RH, uncovered, 1/4 weeks, XRPD): not changed | Relative to starting (%) [1, 5]: 99.81% | Relative to starting (%) [1, 6]: 99.83% | Relative to starting (%) [1, 7]: 99.79% | Relative to starting (%) [1, 8]: 99.77% | Purity (area %) [1, 5]: 94.14 area % | Purity (area %) [1, 6]: 94.19 area % | Purity (area %) [1, 7]: 94.15 area % | Purity (area %) [1, 8]: 94.13 area % | Purity (area %) ([1]; Starting): 94.35 area % | hygroscopicity (in words) ([2]; DVS, 25° C./80% RH): almost no hygroscopicity | vapor sorption ([2]; DVS, 25° C./80% RH): 0.07% | crystal form after DVS test ([2]; XRPD before and after DVS, 0% RH to 95% RH to 0% RH, 25° C.): unchanged | hygroscopicity (summary statement) ([2]; beneficial effects summary): relatively low hygroscopicity | solubility at 1 h ([3]; FaSSIF, pH 6.5, fassif): 1960 µg/mL (≈ 4090 µM) | solubility at 2 h ([3]; FaSSIF, pH 6.5, fassif): 1830 µg/mL (≈ 3820 µM) | solubility at 4 h ([3]; FaSSIF, pH 6.5, fassif): 1860 µg/mL (≈ 3880 µM) | solubility at 24 h ([3]; FaSSIF, pH 6.5, fassif): 1590 µg/mL (≈ 3320 µM) | solubility at 1 h ([3]; FeSSIF, pH 5, fessif): 210 µg/mL (≈ 438 µM) | solubility at 2 h ([3]; FeSSIF, pH 5, fessif): 220 µg/mL (≈ 459 µM) | solubility at 4 h ([3]; FeSSIF, pH 5, fessif): 220 µg/mL (≈ 459 µM) | solubility at 24 h ([3]; FeSSIF, pH 5, fessif): 210 µg/mL (≈ 438 µM) | solubility at 1 h [3, 9]: 40 µg/mL (≈ 83.4 µM) | solubility at 2 h [3, 9]: 40 µg/mL (≈ 83.4 µM) | solubility at 4 h [3, 9]: 50 µg/mL (≈ 104 µM) | solubility at 24 h [3, 9]: 40 µg/mL (≈ 83.4 µM) | Crystal form change ([3]; FaSSIF, 37° C., 1 h): No | Crystal form change ([3]; FaSSIF, 37° C., 2 h): No | Crystal form change ([3]; FaSSIF, 37° C., 4 h): No | Crystal form change ([3]; FaSSIF, 37° C., 24 h): No | Crystal form change ([3]; FeSSIF, 37° C., 1 h, Yes^a: converted to the free acid crystal form A): No | Crystal form change ([3]; FeSSIF, 37° C., 2 h, Yes^a: converted to the free acid crystal form A): No | Crystal form change ([3]; FeSSIF, 37° C., 4 h, Yes^a: converted to the free acid crystal form A): No | Crystal form change ([3]; FeSSIF, 37° C., 24 h, Yes^a: converted to the free acid crystal form A): No | Crystal form change ([3]; H2O, 37° C., 1 h): No | Crystal form change ([3]; H2O, 37° C., 2 h): No | Crystal form change ([3]; H2O, 37° C., 4 h): No | Crystal form change ([3]; H2O, 37° C., 24 h): No | Crystal form change ([3]; SGF, 37° C., 1 h, Yes^a: converted to the free acid crystal form A): No | Crystal form change ([3]; SGF, 37° C., 2 h, Yes^a: converted to the free acid crystal form A): No | Crystal form change ([3]; SGF, 37° C., 4 h, Yes^a: converted to the free acid crystal form A): No | Crystal form change ([3]; SGF, 37° C., 24 h, Yes^a: converted to the free acid crystal form A): No | pH ([3]; FaSSIF, 37° C., 1 h): 6.1 | pH ([3]; FaSSIF, 37° C., 2 h): 6.1 | pH ([3]; FaSSIF, 37° C., 4 h): 6.1 | pH ([3]; FaSSIF, 37° C., 24 h): 6.1 | pH ([3]; FeSSIF, 37° C., 1 h): 4.9 | pH ([3]; FeSSIF, 37° C., 2 h): 4.9 | pH ([3]; FeSSIF, 37° C., 4 h): 4.9 | pH ([3]; FeSSIF, 37° C., 24 h): 5.0 | pH ([3]; H2O, 37° C., 1 h): 8.3 | pH ([3]; H2O, 37° C., 2 h): 8.4 | pH ([3]; H2O, 37° C., 4 h): 8.3 | pH ([3]; H2O, 37° C., 24 h): 4.8 | pH ([3]; SGF, 37° C., 1 h): 1.8 | pH ([3]; SGF, 37° C., 2 h): 1.8 | pH ([3]; SGF, 37° C., 4 h): 1.8 | pH ([3]; SGF, 37° C., 24 h): 1.8 | solubility at 1 h ([3]; water): 80 µg/mL (≈ 167 µM) | solubility at 2 h ([3]; water): 80 µg/mL (≈ 167 µM) | solubility at 4 h ([3]; water): 90 µg/mL (≈ 188 µM) | solubility at 24 h ([3]; water): 130 µg/mL (≈ 271 µM) | crystal form after the vehicle solubility tests ([3]; water, SGF, FaSSIF, FeSSIF, 37° C., XRPD): unchanged

C[C@H](NC(=O)c1c(C(F)F)nn(C)c1Oc1cccc(C(C)(F)F)c1)c1ccc(C(=O)O)cc1 [free acid crystal form B, (S)-4-(1-(5-(3-(1,1-difluoroethyl)phenoxy)-3-(difluoromethyl)-1-methyl-1H-pyrazole-4-carboxamide)ethyl)benzoic acid]
crystal form after being dried at room temperature [4]: converted into the free acid crystal form A
